According to patent US20260008746A1, “CATIONIC LIPID COMPOUND WITH HIGH EFFICIENCY, LOW TOXICITY AND STABLE EXPRESSION, AND COMPOSITION COMPRISNG SAME” (HANGZHOU TIANLONG PHARMACEUTICAL CO., LTD, priority 2023, published 2026):
Values joined by “and” are separate entries in the source; they are usually repeats but may differ in a detail not shown here. Equal values may be shown once.

How the values were obtained:
[1] = test system: 293T cells; assay: Cell survival rate determination (CCK-8); assay type: cell-based; settings: for Cell survival rate (%): LNP formulation containing 1.5 μg Fluc-mRNA, 24 hours, CCK-8, absorbance at 450 nm; for cell survival rate lower than that of YK-101: cell survival rate of YK-101 minus that of named substance; for cell survival rate lower than that of YK-107: cell survival rate of YK-107 minus that of named substance; for cell survival rate lower than that of YK-108: cell survival rate of YK-108 minus that of named substance
Procedure, shortened: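 293T cells were seeded overnight at 10,000 cells/well in 96-well plates, then exposed for 24 h to LNP containing 1.5 μg Fluc-mRNA (cationic:neutral:structural:polymer-conjugated lipid, 49:10:39.5:1.5 molar) or to Lipofectamine 3000. Viability was read by CCK-8, 1 h incubation, absorbance 450 nm.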

[2] = test system: BALB/C mice; assay: In vivo imaging of Fluc-mRNA expression in mice delivered by LNP formulations; settings: for average radiation intensity, 6 h / average radiation intensity, 24 h / average radiation intensity, 48 h / average radiation intensity, 7 d: LNP containing 10 pg Fluc-mRNA, intramuscular, female BALB/C mice
Procedure, shortened: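 Female BALB/C mice (4-6 weeks, 17-19 g) received LNP carrying […] Fluc-mRNA intramuscularly. Substrate was given intraperitoneally at 6 h, 24 h, 48 h and 7 d, and average radiance was imaged by IVIS 5 min later.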

[3] = test system: 293T cells; assay: Fluorescent detection of Fluc-mRNA (cell transfection efficiency of LNP formulations); assay type: cell-based; settings: for Relative light unit (RLU): LNP formulation containing 0.3 μg Fluc-mRNA, 96-well plate, 24 hours; for Multiples (YK-107): RLU of YK-107 / RLU of named substance; for fluorescence absorption value, times that of HHMA: RLU of named substance / RLU of HHMA; for fluorescence absorption value, times that of Lipofectamine 3000: RLU of named substance / RLU of Lipofectamine 3000; for Ratio relative to SM-102: RLU of named substance / RLU of SM-102; for Fluc-mRNA expression signal intensity, times that of compound 21: RLU of named substance / RLU of compound 21; for fluorescence absorption value, times that of compound 23: RLU of named substance / RLU of compound 23; for difference from SM-102 in Fluc-mRNA fluorescence (GraphPad Prism analysis): statistical comparison with SM-102
Procedure, shortened: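 293T cells seeded at 10,000 per well, cultured overnight, then given LNP carrying 0.3 μg Fluc-mRNA (cationic:neutral:structured:PEG-lipid 49:10:39.5:1.5 molar). Incubated 24 h. Luciferase signal read with kit reagent on an IVIS imaging system.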

[4] = Determination of particle size and polydispersity index (PDI) of lipid nanoparticles by dynamic light scattering; assay type: physicochemical; settings: LNP formulation of named cationic lipid/DSPC/cholesterol/DMG-PEG2000 49:10:39.5:1.5; for Particle size (nm): 90° scattering angle, 25° C
Procedure, shortened: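 LNPs of cationic lipid/DSPC/cholesterol/DMG-PEG2000 (49:10:39.5:1.5 mol%), lipid:mRNA 15:1 w/w, carrying eGFP or Fluc mRNA, made by ethanol injection into citrate buffer pH 4–5, sonicated, PBS-exchanged by ultrafiltration. Size and PDI by dynamic light scattering after dilution in RNase-free water, 90° angle, 25 °C, triplicate.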

[5] = highest multiple, time point not stated

Row | SMILES | Cell survival rate (%) [1] [%] | cell survival rate lower than that of YK-101 [1] | cell survival rate lower than that of YK-107 [1] | cell survival rate lower than that of YK-108 [1] | average radiation intensity of YK-101, times that of named substance ([2]; 6 h) [times] | average radiation intensity of YK-107, times that of named substance ([2]; 6 h) [times] | average radiation intensity of YK-108, times that of named substance ([2]; 6 h) [times] | average radiation intensity of YK-101, times that of named substance ([2]; 24 h) [times] | average radiation intensity of YK-107, times that of named substance ([2]; 24 h) [times] | average radiation intensity of YK-108, times that of named substance ([2]; 24 h) [times] | average radiation intensity of YK-101, times that of named substance ([2]; 48 h) [times] | average radiation intensity of YK-107, times that of named substance ([2]; 48 h) [times] | average radiation intensity of YK-108, times that of named substance ([2]; 48 h) [times] | average radiation intensity of YK-101, times that of named substance ([2]; 7 d) [times] | average radiation intensity of YK-107, times that of named substance ([2]; 7 d) [times] | average radiation intensity of YK-108, times that of named substance ([2]; 7 d) [times] | average radiation intensity, 6 h ([2]; 6 h) | average radiation intensity, 24 h ([2]; 24 h) | average radiation intensity, 48 h ([2]; 48 h) | average radiation intensity, 7 d ([2]; 7 d) | also measured
1 | CCCCCCCCCCOC(=O)CCCN(CCCCCC(=O)OCCC(CCCCCC)CCCCCC)CCOCCO [YK-123, 3-hexylnonyl 6-(4-(decyloxy)-4-oxobutyl)(2-(2-hydroxyethoxy-ethyl)amino)hexanoate] | 76.68 | 13.44% | 13.77% | 13.18% | 4.7 | 5.0 | 6.4 | 18.0 | 22.2 | 23.9 | 19.9 | 24.2 | 24.7 | 8.6 | 9.4 | 10.0 | 317640 | 58728 | 9336 | 1414 | cell transfection efficiency, times that of YK-124 [3]: 10 times; Relative light unit (RLU) [3]: 807703 RLU; Multiples (YK-107) [3]: 27.68; fluorescence absorption value, times that of HHMA [3]: 0.39 times; fluorescence absorption value, times that of Lipofectamine 3000 [3]: 0.75 times; Ratio relative to SM-102 [3]: 0.53; Fluc-mRNA expression signal intensity, times that of compound 21 [3]: 0.58 times; fluorescence absorption value, times that of compound 23 [3]: 0.63 times; difference from SM-102 in Fluc-mRNA fluorescence (GraphPad Prism analysis) [3]: no significant difference; PDI(%) [4]: 15.4%; Particle size (nm) [4]: 246 nm
2 | CCCCCCCCCCOC(=O)CCCN(CCCCCC(=O)OCC(CCCCCCCC)CCCCCCCC)CCOC(=O)CCCN(C)C [YK-126] | 25.03 | 60% and 65.09% | 60% and 65.42% | 60% and 64.83% | 9.6 | 10.3 | 13.0 | 50.4 | 62.2 | 67.1 | 27.9 | 34.0 | 34.6 | 13.9 | 15.2 | 16.2 | 155160 | 20939 | 6656 | 877 | cell survival rate lower than that of YK-122 [1]: 54.12%; cell survival rate lower than that of YK-124 [1]: 52.53%; expression amount of mRNA in mice of YK-101, times that of named substance [2, 5]: 50 times; expression amount of mRNA in mice of YK-107, times that of named substance [2, 5]: 62 times; cell transfection activity, times that of YK-125 [3]: 1.3 times; Relative light unit (RLU) [3]: 219983 RLU; Multiples (YK-101) ([3]; RLU of YK-101 / RLU of named substance): 92.44; Multiples (YK-107) [3]: 101.65; Multiples (YK-108) ([3]; RLU of YK-108 / RLU of named substance): 112.10; fluorescence absorption value, times that of HHMA [3]: 0.11 times; fluorescence absorption value, times that of Lipofectamine 3000 [3]: 0.20 times; Ratio relative to SM-102 [3]: 0.14; Fluc-mRNA expression signal intensity, times that of compound 21 [3]: 0.16 times; fluorescence absorption value, times that of compound 23 [3]: 0.17 times; difference from SM-102 in Fluc-mRNA fluorescence (GraphPad Prism analysis) [3]: significant difference; PDI(%) [4]: 15.1%; Particle size (nm) [4]: 260 nm
